Source: ChEMBL document CHEMBL1201862, “PubChem BioAssay data set” (2004)
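Step 1: Grow cells in 96-well plates. Step 2: Expose to compound for 48 hours at 5 concentrations. Step 3: Interpolate endpoints linearly; if unreached, use highest concentration. GI50 is the concentration that inhibits growth by half.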 Activity calls are given as the source filed them. No stated cut-off is given here; in the data, active = GI50 up to about 1.1 µM and inactive = higher.

Legend:
Test in all cases: NCI anticancer screen, dose series, 48 h
[1] = tested on: SF-539
[2] = tested on: HOP-92
[3] = tested on: SK-MEL-5
[4] = tested on: TK-10
[5] = tested on: Malme-3M
[6] = tested on: 786-0
[7] = tested on: EKVX
[8] = tested on: Hs-578T
[9] = tested on: A549
[10] = tested on: HT-29
[11] = tested on: MDA-N
[12] = tested on: U-251
[13] = tested on: NCI-H460
[14] = tested on: A498
[15] = tested on: NCI-H522
[16] = tested on: M14
[17] = tested on: MDA-MB-231
[18] = tested on: NCI/ADR-RES
[19] = tested on: BT-549

Row | SMILES | GI50 [1] | GI50 [2] | GI50 [3] | GI50 [4] | GI50 [5] | GI50 [6] | GI50 [7] | GI50 [8] | GI50 [9] | GI50 [10] | GI50 [11] | GI50 [12] | GI50 [13] | GI50 [14] | GI50 [15] | GI50 [16] | GI50 [17] | GI50 [18] | GI50 [19]
1 | c1cc2c(cc1NC1=NCCO1)CCC2 | 3.08 µM (inactive) | 7.5 µM (inactive) | > 10 µM (inactive) | > 10 µM (inactive) | > 10 µM (inactive) | > 10 µM (inactive) | > 10 µM (inactive) | 1.03 µM (active) | > 10 µM (inactive) | > 10 µM (inactive) | 3.24 µM (inactive) | – | – | – | – | – | – | – | –
2 | CN(C)c1ccc(/C=C/C(=O)c2ccccc2)cc1Br | – | – | 18.4 µM (inactive) | 26.1 µM (inactive) | 17.6 µM (inactive) | 17.2 µM (inactive) | > 100 µM (inactive) | – | 34.9 µM (inactive) | 19.7 µM (inactive) | – | 18.5 µM (inactive) | 35.7 µM (inactive) | > 100 µM (inactive) | 15 µM (inactive) | 13.2 µM (inactive) | – | – | –
3 | Fc1ccc2c3c([nH]c2c1)CCNC3 | > 100 µM (inactive) | 29.5 µM (inactive) | > 100 µM (inactive) | > 100 µM (inactive) | > 100 µM (inactive) | > 100 µM (inactive) | > 100 µM (inactive) | > 100 µM (inactive) | > 100 µM (inactive) | > 100 µM (inactive) | – | > 100 µM (inactive) | > 100 µM (inactive) | 20.4 µM (inactive) | – | > 100 µM (inactive) | > 100 µM (inactive) | > 100 µM (inactive) | –
4 | Cn1c(CCC#N)nc2ccc(Br)cc2c1=O | > 100 µM (inactive) | > 100 µM (inactive) | > 100 µM (inactive) | > 100 µM (inactive) | > 100 µM (inactive) | > 100 µM (inactive) | > 100 µM (inactive) | – | > 100 µM (inactive) | > 100 µM (inactive) | – | > 100 µM (inactive) | > 100 µM (inactive) | > 100 µM (inactive) | > 100 µM (inactive) | > 100 µM (inactive) | – | – | –
5 | CC(=O)/N=C1/N(/C=C2\C(=O)Oc3ccccc3C2=O)C(=O)/C(=C/c2ccc(Cl)cc2Cl)N1C | 25.6 µM (inactive) | – | 10.9 µM (inactive) | – | > 100 µM (inactive) | > 100 µM (inactive) | 18.7 µM (inactive) | 0.991 µM (active) | 96.6 µM (inactive) | > 100 µM (inactive) | – | 52.6 µM (inactive) | > 10 µM (inactive) | 19.2 µM (inactive) | 94 µM (inactive) | > 100 µM (inactive) | > 100 µM (inactive) | > 100 µM (inactive) | 11.5 µM (inactive)
6 | CC1=NN(c2nc(N)nc(CSc3nc4n(c(=S)n3)CCN4)n2)C(C)(C)C1 | 44.8 µM (inactive) | 18.6 µM (inactive) | > 100 µM (inactive) | 74.1 µM (inactive) | – | 93.5 µM (inactive) | 27.4 µM (inactive) | 15.6 µM (inactive) | – | > 100 µM (inactive) | – | 37.9 µM (inactive) | > 100 µM (inactive) | 39.7 µM (inactive) | – | 67.9 µM (inactive) | 29.6 µM (inactive) | 30.1 µM (inactive) | > 100 µM (inactive)
7 | CC1CC(=O)Nc2ccc(Cl)cc2N1C(=O)CN1CCC(CCCCN(C)C)CC1 (configuration not stated) | – | > 100 µM (inactive) | > 100 µM (inactive) | > 100 µM (inactive) | > 100 µM (inactive) | > 100 µM (inactive) | – | – | > 100 µM (inactive) | > 100 µM (inactive) | – | > 100 µM (inactive) | > 100 µM (inactive) | > 100 µM (inactive) | – | > 100 µM (inactive) | – | – | –
8 | COc1ccc(N2/C(=N/c3ccccc3)SC(=N/S(=O)(=O)c3ccccc3)/C2=N\S(=O)(=O)c2ccccc2)cc1 | – | 16.4 µM (inactive) | 16.6 µM (inactive) | 20.1 µM (inactive) | 21 µM (inactive) | 24.9 µM (inactive) | 22.6 µM (inactive) | 18.6 µM (inactive) | 18.5 µM (inactive) | 19.6 µM (inactive) | – | 16.7 µM (inactive) | 11.3 µM (inactive) | 20.1 µM (inactive) | – | 33.7 µM (inactive) | 14.3 µM (inactive) | – | 24.3 µM (inactive)
9 | COc1cccc(/C=N/NC(=O)CSCC(=O)N/N=C/c2cccc(OC)c2OC)c1OC | > 100 µM (inactive) | > 100 µM (inactive) | 58.3 µM (inactive) | > 100 µM (inactive) | > 100 µM (inactive) | > 100 µM (inactive) | > 100 µM (inactive) | 37.7 µM (inactive) | > 100 µM (inactive) | > 100 µM (inactive) | – | > 100 µM (inactive) | > 100 µM (inactive) | 51.2 µM (inactive) | > 100 µM (inactive) | > 100 µM (inactive) | > 100 µM (inactive) | > 100 µM (inactive) | –
10 | Cc1ccc(O)c(C(c2cc(C)ccc2O)c2cc([N+](=O)[O-])ccc2O)c1 | 15.7 µM (inactive) | 14.8 µM (inactive) | 38.6 µM (inactive) | 17.4 µM (inactive) | – | 16.1 µM (inactive) | 15.2 µM (inactive) | 7.71 µM (inactive) | 12.1 µM (inactive) | 15 µM (inactive) | – | 15.7 µM (inactive) | – | 17.2 µM (inactive) | 13.2 µM (inactive) | 11 µM (inactive) | 0.0604 µM (active) | 21.1 µM (inactive) | –
11 | COC(=O)C(=O)C1(CCC(C)=O)c2ccccc2-c2ccccc21 | – | – | 35.7 µM (inactive) | 71.3 µM (inactive) | 49.7 µM (inactive) | 85.1 µM (inactive) | > 100 µM (inactive) | – | 87.5 µM (inactive) | 79.8 µM (inactive) | – | 68.5 µM (inactive) | 59.8 µM (inactive) | 88.5 µM (inactive) | 69.2 µM (inactive) | 41 µM (inactive) | – | – | –
12 | CCOC(=O)C(CC#Cc1ccc(C#CCC(NC(C)=O)C(=O)OCC)cc1)NC(C)=O (configuration not stated) | > 100 µM (inactive) | – | > 100 µM (inactive) | > 100 µM (inactive) | > 100 µM (inactive) | > 100 µM (inactive) | > 100 µM (inactive) | > 100 µM (inactive) | > 100 µM (inactive) | > 100 µM (inactive) | > 100 µM (inactive) | – | > 100 µM (inactive) | > 100 µM (inactive) | > 100 µM (inactive) | > 100 µM (inactive) | > 100 µM (inactive) | > 100 µM (inactive) | –
13 | COc1ccc(/N=C(/C[S+]([O-])c2ccc(C)cc2)C(F)(F)F)cc1 (configuration not stated) | > 100 µM (inactive) | > 100 µM (inactive) | > 100 µM (inactive) | > 100 µM (inactive) | > 100 µM (inactive) | > 100 µM (inactive) | > 100 µM (inactive) | – | 78 µM (inactive) | > 100 µM (inactive) | > 100 µM (inactive) | > 100 µM (inactive) | > 100 µM (inactive) | – | > 100 µM (inactive) | > 100 µM (inactive) | > 100 µM (inactive) | > 100 µM (inactive) | > 100 µM (inactive)
14 | CC(C)(C)OC(=O)NCCCCCCC(=O)Cc1ccccc1 | – | > 100 µM (inactive) | 60.8 µM (inactive) | > 100 µM (inactive) | > 100 µM (inactive) | > 100 µM (inactive) | > 100 µM (inactive) | – | > 100 µM (inactive) | > 100 µM (inactive) | > 100 µM (inactive) | > 100 µM (inactive) | > 100 µM (inactive) | > 100 µM (inactive) | > 100 µM (inactive) | > 100 µM (inactive) | > 100 µM (inactive) | > 100 µM (inactive) | > 100 µM (inactive)
15 | COc1ccc(C2C3=C(COC3=O)Oc3cc4c(cc32)OCO4)cc1OC (configuration not stated) | 0.547 µM (active) | 39.4 µM (inactive) | 0.489 µM (active) | 12.1 µM (inactive) | 0.682 µM (active) | 1.04 µM (active) | 3.61 µM (inactive) | 0.408 µM (active) | 1.27 µM (inactive) | 0.395 µM (active) | 0.135 µM (active) | 0.785 µM (active) | 0.547 µM (active) | 0.352 µM (active) | 0.437 µM (active) | 1.52 µM (inactive) | 3.4 µM (inactive) | 0.33 µM (active) | –
16 | O=C1/C(=C/c2ccc(Cl)cc2)NC(=S)N1CN1CCCCC1 | – | 50.5 µM (inactive) | 31 µM (inactive) | 39 µM (inactive) | 21.5 µM (inactive) | 30.2 µM (inactive) | 28.2 µM (inactive) | 21.5 µM (inactive) | 34.1 µM (inactive) | 15.8 µM (inactive) | 63 µM (inactive) | 47.2 µM (inactive) | – | 61.5 µM (inactive) | 18 µM (inactive) | 35.1 µM (inactive) | 49.9 µM (inactive) | 19.3 µM (inactive) | –
17 | COc1cc2c(cc1O)[C@H](Cc1ccc(Oc3cc(C[C@H]4c5cc(OC)c(OC)cc5CCN4C)ccc3OC)cc1)NCC2 | 10.5 µM (inactive) | 5.16 µM (inactive) | – | > 10 µM (inactive) | 22.1 µM (inactive) | 12.4 µM (inactive) | > 10 µM (inactive) | – | 17.9 µM (inactive) | 6.22 µM (inactive) | – | 12 µM (inactive) | 14.3 µM (inactive) | 13.7 µM (inactive) | – | 1.81 µM (inactive) | – | – | –
18 | COC(=O)c1sc2nc(Nc3ccccc3)/c(=N\c3ccccc3)sc2c1C | 51.9 µM (inactive) | 31.3 µM (inactive) | 88.5 µM (inactive) | 30.5 µM (inactive) | > 100 µM (inactive) | 34.8 µM (inactive) | 59.6 µM (inactive) | 27.7 µM (inactive) | 65.8 µM (inactive) | > 100 µM (inactive) | 66.8 µM (inactive) | 48.6 µM (inactive) | 45.4 µM (inactive) | 53.7 µM (inactive) | 30.3 µM (inactive) | – | > 100 µM (inactive) | 80.5 µM (inactive) | –
